# Measured values from patent US20160090556A1, “PRODUCTS COMPRISING MALODOR REDUCTION MATERIALS” (The Procter & Gamble Company, priority 2014, published 2016).
# Read-outs that look alike come from different tables or passages of the source.
# Assay: Liquid dish neat product liquid-air partition coefficient
# Type: physicochemical
# Settings: for Comment Code: Log of liquid dish neat product liquid-air partition coefficient: code letters K, L
# [1] = class code letter within Comment Code
Structure (SMILES),Comment Code: Log of liquid dish neat product liquid-air partition coefficient,Log of liquid dish neat product liquid-air partition coefficient (Comment Code K/L),Log of liquid dish neat product liquid-air partition coefficient (Comment Code K/L) [1]
O=C(O)CCc1ccccc1 [Material 255],K (Log of liquid dish neat product liquid-air partition coefficient greater than or equal to −7),–,–
C=CCCC(=O)C1=CCCC(C)(C)C1 [Material 697],–,K (Log of liquid dish neat product liquid-air partition coefficient greater than or equal to −7),–
CCCCCCCCOC(=O)c1ccco1 [Material 28],–,–,K (Log of liquid dish neat product liquid-air partition coefficient greater than or equal to −7)
C=C1C2CCC(C2)C1(C)CCC=C(C)CO (stereo not shown) [Material 616],K (Log of liquid dish neat product liquid-air partition coefficient greater than or equal to −7),K (Log of liquid dish neat product liquid-air partition coefficient greater than or equal to −7),–
CC(=O)C1CC/C(C)=C\CC/C(C)=C\C/C=C/1C (stereo not shown) [Material 1095],–,K (Log of liquid dish neat product liquid-air partition coefficient greater than or equal to −7),–
CC1CCC2(O)C(C)(C)C3CCC2(C)C1C3 (stereo not shown) [Material 933],K (Log of liquid dish neat product liquid-air partition coefficient greater than or equal to −7),K (Log of liquid dish neat product liquid-air partition coefficient greater than or equal to −7),–
CC1C(C)(C)C2CCC3CC(C)(C)OC3C2C1(C)C (stereo not shown) [Material 679],K (Log of liquid dish neat product liquid-air partition coefficient greater than or equal to −7),K (Log of liquid dish neat product liquid-air partition coefficient greater than or equal to −7),–
C=C[C@@](C)(O)CCC=C(C)C [Material 1017],K (Log of liquid dish neat product liquid-air partition coefficient greater than or equal to −7),–,–
CC1(C)CCc2ccc(CCC=O)cc21 [Material 260],K (Log of liquid dish neat product liquid-air partition coefficient greater than or equal to −7),–,K (Log of liquid dish neat product liquid-air partition coefficient greater than or equal to −7)
CC(=O)C=CC1C(C)=CCC(C)C1(C)C (stereo not shown) [Material 704],–,K (Log of liquid dish neat product liquid-air partition coefficient greater than or equal to −7),–
CCOC(=O)C1C(CC)=CCCC1(C)C (stereo not shown) [Material 294],–,–,K (Log of liquid dish neat product liquid-air partition coefficient greater than or equal to −7)
COC1(C)CCC23CC1C(C)(C)C2CCC3C (stereo not shown) [Material 565],K (Log of liquid dish neat product liquid-air partition coefficient greater than or equal to −7),K (Log of liquid dish neat product liquid-air partition coefficient greater than or equal to −7),–
CCCCCCCC(=O)OCCC(C)C [Material 237],K (Log of liquid dish neat product liquid-air partition coefficient greater than or equal to −7),–,–
CC(C)(C)c1ccc(CCC=O)cc1 [Material 601],–,K (Log of liquid dish neat product liquid-air partition coefficient greater than or equal to −7),–
COc1ccccc1-c1ccccc1 [Material 22],–,–,K (Log of liquid dish neat product liquid-air partition coefficient greater than or equal to −7)
C=CCc1ccc2c(c1)OCO2 [Material 1021],–,K (Log of liquid dish neat product liquid-air partition coefficient greater than or equal to −7),–
CCCC(O)CCC1C(C)CCCC1(C)C (stereo not shown) [Material 1063],–,K (Log of liquid dish neat product liquid-air partition coefficient greater than or equal to −7),–
CC1=CCOC(c2ccccc2)C1 (stereo not shown) [Material 1016],–,K (Log of liquid dish neat product liquid-air partition coefficient greater than or equal to −7),–
C=C1C2CCC(C)(C)C1CCC(OC)C2 (stereo not shown) [Material 7],K (Log of liquid dish neat product liquid-air partition coefficient greater than or equal to −7),–,K (Log of liquid dish neat product liquid-air partition coefficient greater than or equal to −7)
O=C/C=C/c1ccccc1 [Material 554],K (Log of liquid dish neat product liquid-air partition coefficient greater than or equal to −7),–,–
CC1CC(C)(C)OC(Cc2ccccc2)O1 (stereo not shown) [Material 1003],–,K (Log of liquid dish neat product liquid-air partition coefficient greater than or equal to −7),–
O=C1CCCCCCCCCCCCCC1 [Material 480],–,–,K (Log of liquid dish neat product liquid-air partition coefficient greater than or equal to −7)
c1ccc2c(c1)CC1COCOC21 (stereo not shown) [Material 247],–,–,K (Log of liquid dish neat product liquid-air partition coefficient greater than or equal to −7)

Structure (SMILES),Comment Code: Log of liquid dish neat product liquid-air partition coefficient,Log of liquid dish neat product liquid-air partition coefficient (Comment Code K/L),Log of liquid dish neat product liquid-air partition coefficient (Comment Code K/L) [1]
CC(=O)OC1CC2C3C=CCC3C1C2(C)C (stereo not shown) [Material 360],K (Log of liquid dish neat product liquid-air partition coefficient greater than or equal to −7),–,K (Log of liquid dish neat product liquid-air partition coefficient greater than or equal to −7)
Cc1ccc(C(C)C)cc1O [Material 575],K (Log of liquid dish neat product liquid-air partition coefficient greater than or equal to −7),–,–
CCCCCC(=O)OCc1ccco1 [Material 338],–,–,K (Log of liquid dish neat product liquid-air partition coefficient greater than or equal to −7)
CC(=O)OCCC1=CCC2CC1C2(C)C (stereo not shown) [Material 47],–,–,K (Log of liquid dish neat product liquid-air partition coefficient greater than or equal to −7)
CC1=CCC(=C(C)C)CCC(C)=CCC1 [Material 295],–,–,K (Log of liquid dish neat product liquid-air partition coefficient greater than or equal to −7)
C=C(C)C1CCC(C)C(OC(C)=O)C1 (stereo not shown) [Material 444],–,–,K (Log of liquid dish neat product liquid-air partition coefficient greater than or equal to −7)
C=C(C)C1CCC(C)(OC(C)=O)CC1 (stereo not shown) [Material 611],–,K (Log of liquid dish neat product liquid-air partition coefficient greater than or equal to −7),–
CC(C)CC1CC(C)(O)CCO1 (stereo not shown) [Material 350],–,–,K (Log of liquid dish neat product liquid-air partition coefficient greater than or equal to −7)
CC(=CCCC1(C)C2CC3C(C2)C31C)CO (stereo not shown) [Material 694],K (Log of liquid dish neat product liquid-air partition coefficient greater than or equal to −7),K (Log of liquid dish neat product liquid-air partition coefficient greater than or equal to −7),–
c1ccc2occc2c1 [Material 493],–,–,K (Log of liquid dish neat product liquid-air partition coefficient greater than or equal to −7)
CCC(=O)N(CC)c1cccc(C)c1 [Material 755],K (Log of liquid dish neat product liquid-air partition coefficient greater than or equal to −7),–,–
C=CC(C)=CCC=C(C)CCC=C(C)C [Material 710],–,K (Log of liquid dish neat product liquid-air partition coefficient greater than or equal to −7),–
CC(C)=CCCC(C)=C1CC=C(C)CC1 [Material 608],–,K (Log of liquid dish neat product liquid-air partition coefficient greater than or equal to −7),–
C/C=C/c1ccc(O)c(OC)c1 [Material 1084],K (Log of liquid dish neat product liquid-air partition coefficient greater than or equal to −7),–,–
C=CC(C)(CCC=C(C)C)OC(=O)CCC (stereo not shown) [Material 151],K (Log of liquid dish neat product liquid-air partition coefficient greater than or equal to −7),–,–
C=CCCCCCCCCC=O [Material 871],–,K (Log of liquid dish neat product liquid-air partition coefficient greater than or equal to −7),–
COc1ccc(CC(C)C=O)cc1 (stereo not shown) [Material 586],–,K (Log of liquid dish neat product liquid-air partition coefficient greater than or equal to −7),–
C=CC(=C)CCC=C(C)CCC=C(C)C=O [Material 613],–,K (Log of liquid dish neat product liquid-air partition coefficient greater than or equal to −7),–
CC1CCC(C(C)(C)O)CC2=C1CCC2C (stereo not shown) [Material 292],–,–,K (Log of liquid dish neat product liquid-air partition coefficient greater than or equal to −7)
CC(=O)O[C@]1(C)CC[C@@]23C[C@@H]1C(C)(C)[C@@H]2CC[C@H]3C [Material 567],K (Log of liquid dish neat product liquid-air partition coefficient greater than or equal to −7),K (Log of liquid dish neat product liquid-air partition coefficient greater than or equal to −7),–
CCCCCCCCCCCCCC(=O)OC(C)C [Material 196],–,–,K (Log of liquid dish neat product liquid-air partition coefficient greater than or equal to −7)
COc1ccc(COC=O)cc1 [Material 665],K (Log of liquid dish neat product liquid-air partition coefficient greater than or equal to −7),–,–
N#CC=Cc1ccccc1 [Material 549],K (Log of liquid dish neat product liquid-air partition coefficient greater than or equal to −7),–,–
